What was measured:
PMVK = molecular target: T1, PMVK (Homo sapiens, UniProt Q15126); test: Isothermal titration calorimetry with recombinant PMVK; type: binding; settings: ITC, 25 °C, 50 μM protein, 500 μM ligand, buffer pH 7.4 with 1 mM MgCl2; triplicate
T1 construct: 6xHis (N, cleaved yes); V5 (N, cleaved yes); made in house; host or cells: E. coli BL21 (DE3)
T1 sequence (Q15126 1-192): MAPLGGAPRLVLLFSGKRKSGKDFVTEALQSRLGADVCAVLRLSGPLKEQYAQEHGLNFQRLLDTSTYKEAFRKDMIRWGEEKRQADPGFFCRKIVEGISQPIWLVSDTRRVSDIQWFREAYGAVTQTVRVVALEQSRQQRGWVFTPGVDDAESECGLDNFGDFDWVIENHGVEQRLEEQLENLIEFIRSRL
Method: Protein stocks were subjected to buffer exchange using final buffer conditions: 25 mM HEPES, pH 7.4, 150 mM KCl, 1 mM MgCl2, 40 mM NaCl, 0.5 mM TCEP (ITC buffer). The exact protein concentration was determined by BCA assay and adjusted to 50 μM. […] ITC experiments were carried out at 25 °C in a MicroCal PEAQ-ITC calorimeter (Malvern Panalytical GmbH, Kassel, Germany), with ca. 50 μM protein in the cell and 500 μM ligand in the syringe. InsPs were titrated into the solution in nineteen 2 μL-steps. Spacing between injections was 150 s. The corresponding instrument software (MicroCal PEAQ-ITC Analysis) was used for baseline correction, peak integration, data fitting and determination of binding parameters. All experiments were carried out in triplicate.

PDAP1 = molecular target: T2, PDAP1 (Homo sapiens, UniProt Q13442); test: KDapp by affinity enrichment/TMT-MS; type: binding; settings: Mg^2+(cyto) HEK293T lysate; read-out: KD^app
T2 construct: endogenous in cells; host or cells: HEK293T cytosolic fraction
T2 sequence (Q13442 1-181): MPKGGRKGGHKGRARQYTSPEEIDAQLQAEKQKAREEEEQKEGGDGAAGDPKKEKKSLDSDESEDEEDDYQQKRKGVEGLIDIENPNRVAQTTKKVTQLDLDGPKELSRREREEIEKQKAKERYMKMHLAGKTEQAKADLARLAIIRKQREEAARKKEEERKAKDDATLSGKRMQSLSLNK
Method: (§1) Cells were lysed using two different lysis buffers (containing either 1 mM EDTA or containing 1 mM Mg^2+), and the lysates were separated into nuclear and cytosolic fractions to provide deeper proteome coverage (Supplementary Fig. 8). […] Following quick washing steps, the retained proteins were eluted with an excess of the corresponding free ligand. The samples were digested with trypsin, followed by 11-plex TMT isobaric labeling, subsequent sample pooling, and LC-MS/MS analysis. To ensure robustness of the datasets, the experiments were performed in biological triplicates, and only proteins fully quantified in at least two replicates were further analyzed. […] In addition, model validity was assessed by an F-test comparing the Hill-like fit to a null model, and only proteins with statistically significant fits (p ≤ 0.05) were considered. Furthermore, a cutoff of log2 fold-change ≥ 1 between the endpoints was applied (Supplementary Data 1).
(§2) Cells were washed twice with ice-cold 0.9 mM NaCl in H2O (10 mL), carefully scraped off, added to protein low-binding microcentrifuge tubes, and ice-cold PBS (1 mL) was added. The cells were pelleted for 2 min, 250 g at 4 °C, and the supernatant was removed. The pellet was washed twice with ice-cold PBS (1 mL), the supernatant was removed, and the pellet was kept on ice. […]

MMTAG2 = molecular target: T3, MMTAG2 (Homo sapiens, UniProt Q9BU76); test: KDapp by affinity enrichment/TMT-MS; type: binding; settings: Mg^2+nucl HEK293T lysate; read-out: KD^app
T3 construct: endogenous in cells; host or cells: HEK293T nuclear fraction (Mg2+)
T3 sequence (Q9BU76 whole entry): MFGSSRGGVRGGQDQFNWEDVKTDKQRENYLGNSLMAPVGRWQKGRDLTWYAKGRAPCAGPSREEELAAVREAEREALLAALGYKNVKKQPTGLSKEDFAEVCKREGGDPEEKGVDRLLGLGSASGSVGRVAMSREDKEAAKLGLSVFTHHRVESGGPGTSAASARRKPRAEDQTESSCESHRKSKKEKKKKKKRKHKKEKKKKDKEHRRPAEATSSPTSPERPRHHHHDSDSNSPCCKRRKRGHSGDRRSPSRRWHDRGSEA
Method: as §1, §2

PPIP5K2 = molecular target: T4, PPIP5K2 (Homo sapiens, UniProt O43314); test: KDapp by affinity enrichment/TMT-MS; type: binding; settings: in the presence of Mg^2+ ions, cytosolic dataset
T4 construct: endogenous in cells; host or cells: HEK293T cytosolic fraction (Mg2+)
T4 sequence (O43314 1-1243): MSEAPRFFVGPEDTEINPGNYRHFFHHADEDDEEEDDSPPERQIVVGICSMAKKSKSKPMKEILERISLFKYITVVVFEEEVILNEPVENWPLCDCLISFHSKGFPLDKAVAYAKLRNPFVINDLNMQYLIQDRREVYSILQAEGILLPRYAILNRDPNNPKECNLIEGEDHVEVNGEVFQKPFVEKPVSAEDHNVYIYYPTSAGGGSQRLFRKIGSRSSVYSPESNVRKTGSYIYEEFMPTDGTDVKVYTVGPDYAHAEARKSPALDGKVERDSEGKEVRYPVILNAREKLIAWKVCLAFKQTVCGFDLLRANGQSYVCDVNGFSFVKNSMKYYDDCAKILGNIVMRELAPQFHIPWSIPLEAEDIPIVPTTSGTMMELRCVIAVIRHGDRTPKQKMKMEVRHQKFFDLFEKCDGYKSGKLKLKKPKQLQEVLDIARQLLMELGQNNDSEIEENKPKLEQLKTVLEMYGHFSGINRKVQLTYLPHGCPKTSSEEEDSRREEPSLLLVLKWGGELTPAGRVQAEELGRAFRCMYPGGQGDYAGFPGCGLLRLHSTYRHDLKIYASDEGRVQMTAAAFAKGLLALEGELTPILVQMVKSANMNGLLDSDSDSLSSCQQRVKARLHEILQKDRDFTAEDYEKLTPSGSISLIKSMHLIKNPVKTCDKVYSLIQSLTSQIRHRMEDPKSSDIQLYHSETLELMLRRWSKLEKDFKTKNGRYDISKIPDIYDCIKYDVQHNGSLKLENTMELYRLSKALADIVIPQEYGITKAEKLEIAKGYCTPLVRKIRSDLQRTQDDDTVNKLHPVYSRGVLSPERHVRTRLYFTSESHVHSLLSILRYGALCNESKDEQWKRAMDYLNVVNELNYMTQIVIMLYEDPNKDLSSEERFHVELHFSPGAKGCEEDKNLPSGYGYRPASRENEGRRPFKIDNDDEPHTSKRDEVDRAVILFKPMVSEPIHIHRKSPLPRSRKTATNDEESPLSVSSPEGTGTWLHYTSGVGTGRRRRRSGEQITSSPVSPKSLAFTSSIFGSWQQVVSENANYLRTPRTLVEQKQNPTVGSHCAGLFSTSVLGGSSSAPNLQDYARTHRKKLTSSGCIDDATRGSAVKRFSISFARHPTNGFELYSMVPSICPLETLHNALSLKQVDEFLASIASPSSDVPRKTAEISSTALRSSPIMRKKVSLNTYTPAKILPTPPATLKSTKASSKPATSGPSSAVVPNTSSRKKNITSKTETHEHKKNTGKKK
Method: as §1, §2

POLR2I = molecular target: T5, POLR2I (Homo sapiens, UniProt P36954); test: KDapp by affinity enrichment/TMT-MS; settings: binding curve, Supplementary Fig. 9
T5 construct: endogenous in cells; host or cells: HEK293T lysate fraction

[1] = system: proteins of HEK293T cell lysates (cytosolic/nuclear, EDTA/Mg2+); test: Proteome-wide KDapp, all four lysate preparations together; type: binding, human; settings: Mg^2+ ions present; read-out: KD^app values of the top 50 proteins
[2] = in the presence of Mg^2+ ions; cited from earlier work
XPR1 = settings: compared with InsP6 and 5PP-InsP5; cited from earlier work

O=P(O)(O)O[C@H]1[C@@H](OP(=O)(O)O)[C@H](OP(=O)(O)O)[C@@H](OP(=O)(O)OP(=O)(O)O)[C@H](OP(=O)(O)O)[C@H]1OP(=O)(O)O [5PP-InsP5, 5-diphosphoinositol pentakisphosphate]
Kd (PMVK): 9.5 ± 1 µM

O=C(CCCC[C@@H]1SC[C@@H]2NC(=O)N[C@@H]21)NCCOCCOCCOCCOCCOP(=O)(O)O[C@@H]1[C@@H](OP(=O)(O)O)[C@H](OP(=O)(O)CP(=O)(O)O)[C@@H](OP(=O)(O)O)[C@H](OP(=O)(O)CP(=O)(O)O)[C@@H]1OP(=O)(O)O [b-1,5(PCP)2-InsP4]
Kd (PDAP1): 600 nM
Kd (MMTAG2): 1900 nM
binding to PPIP5K2 (binding curves) (PPIP5K2): tight binding
binding to POLR2I (POLR2I): strong binding
Kd [1]: < 1000 nM

O=P(O)(O)O[C@@H]1[C@@H](OP(=O)(O)O)[C@H](OP(=O)(O)OP(=O)(O)O)[C@@H](OP(=O)(O)O)[C@H](OP(=O)(O)OP(=O)(O)O)[C@@H]1OP(=O)(O)O [1,5(PP)2-InsP4, bis-1,5-diphosphoinositol tetrakisphosphate]
fraction adopting the flipped conformation [2]: ~30%
in vitro binding affinity to XPR1 (XPR1): highest

O=P(O)(O)O[C@H]1[C@H](OP(=O)(O)O)[C@@H](OP(=O)(O)O)[C@H](OP(=O)(O)O)[C@@H](OP(=O)(O)O)[C@H]1OP(=O)(O)O [InsP6, inositol hexakisphosphate]
Kd (PMVK): 4 ± 0.3 µM

Source: publication PMC13237142, “Proteome-wide quantification of inositol pyrophosphate-protein interactions” (Nature Communications, 2026)
